Measurements taken from PubChem BioAssay (NCI).
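Dose response: 5 concentrations. Exposure: 48 h. Format: 96-well plates. Endpoint: linear interpolation; highest concentration if not reached. TGI is the concentration that stops growth completely.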

Experiments:
Assay in all cases: DTP human tumour cell line panel, 48 h
SK-MEL-2 melanoma = test system: SK-MEL-2 melanoma
ACHN renal = test system: ACHN renal
NCI/ADR-RES ovarian = test system: NCI/ADR-RES ovarian
SK-OV-3 ovarian = test system: SK-OV-3 ovarian
SK-MEL-5 melanoma = test system: SK-MEL-5 melanoma
OVCAR-8 ovarian = test system: OVCAR-8 ovarian
NCI-H23 lung = test system: NCI-H23 lung
A549 NSCLC = test system: A549 NSCLC
BT-549 breast = test system: BT-549 breast
HL-60(TB) leukemia = test system: HL-60(TB) leukemia
HCT-15 colon = test system: HCT-15 colon
MDA-MB-435 = test system: MDA-MB-435
PC-3 prostate = test system: PC-3 prostate
SF-268 CNS = test system: SF-268 CNS
MALME-3M melanoma = test system: MALME-3M melanoma
SN12C renal = test system: SN12C renal
CCRF-CEM leukemia = test system: CCRF-CEM leukemia
M14 melanoma = test system: M14 melanoma
OVCAR-3 ovarian = test system: OVCAR-3 ovarian
SF-539 CNS = test system: SF-539 CNS
DU-145 prostate = test system: DU-145 prostate
T-47D breast = test system: T-47D breast
NCI-H460 lung = test system: NCI-H460 lung
MDA-MB-231 breast = test system: MDA-MB-231 breast
K-562 leukemia = test system: K-562 leukemia
HOP-92 NSCLC = test system: HOP-92 NSCLC
U251 CNS = test system: U251 CNS
KM12 colon = test system: KM12 colon
UACC-62 melanoma = test system: UACC-62 melanoma
OVCAR-4 ovarian = test system: OVCAR-4 ovarian
SW-620 colon = test system: SW-620 colon
HCC-2998 colon = test system: HCC-2998 colon
SNB-75 CNS = test system: SNB-75 CNS
HOP-62 NSCLC = test system: HOP-62 NSCLC
OVCAR-5 ovarian = test system: OVCAR-5 ovarian
COLO 205 colon = test system: COLO 205 colon
LOX IMVI melanoma = test system: LOX IMVI melanoma
RXF 393 renal = test system: RXF 393 renal
HT29 colon = test system: HT29 colon
EKVX NSCLC = test system: EKVX NSCLC
CAKI-1 renal = test system: CAKI-1 renal
NCI-H522 lung = test system: NCI-H522 lung
IGROV1 ovarian = test system: IGROV1 ovarian
MDA-N = test system: MDA-N
SNB-19 CNS = test system: SNB-19 CNS
MOLT-4 leukemia = test system: MOLT-4 leukemia
HS 578T breast = test system: HS 578T breast
NCI-H226 lung = test system: NCI-H226 lung
SK-MEL-28 melanoma = test system: SK-MEL-28 melanoma
HCT-116 colon = test system: HCT-116 colon
UACC-257 melanoma = test system: UACC-257 melanoma
TK-10 renal = test system: TK-10 renal
786-0 renal = test system: 786-0 renal
SF-295 CNS = test system: SF-295 CNS
UO-31 renal = test system: UO-31 renal
A498 renal = test system: A498 renal
MCF7 breast = test system: MCF7 breast
RPMI-8226 leukemia = test system: RPMI-8226 leukemia

## CCn1c2ccc(C(=O)CCCN(C)C)cc2c2cc(C(=O)CCCN(C)C)ccc21
SK-MEL-2 melanoma
  TGI: 3.97 µM
ACHN renal
  TGI: 6.06 µM
NCI/ADR-RES ovarian
  TGI: 21.9 µM
SK-OV-3 ovarian
  TGI: 22.1 µM
SK-MEL-5 melanoma
  TGI: 17.1 µM
OVCAR-8 ovarian
  TGI: 7.59 µM
NCI-H23 lung
  TGI: 4.29 µM
A549 NSCLC
  TGI: 3.27 µM
BT-549 breast
  TGI: 12.4 µM
HL-60(TB) leukemia
  TGI: 3.78 µM
HCT-15 colon
  TGI: 8.92 µM
MDA-MB-435
  TGI: 2.82 µM
PC-3 prostate
  TGI: 5.88 µM
SF-268 CNS
  TGI: 6.62 µM
MALME-3M melanoma
  TGI: 11 µM
SN12C renal
  TGI: 5.87 µM
CCRF-CEM leukemia
  TGI: 10.1 µM
M14 melanoma
  TGI: 5.1 µM
OVCAR-3 ovarian
  TGI: 6.72 µM
SF-539 CNS
  TGI: 2.79 µM
DU-145 prostate
  TGI: 8.34 µM
T-47D breast
  TGI: 33.5 µM
NCI-H460 lung
  TGI: 2.61 µM
MDA-MB-231 breast
  TGI: 3.37 µM
K-562 leukemia
  TGI: 32.3 µM
HOP-92 NSCLC
  TGI: 9.24 µM
U251 CNS
  TGI: 8.46 µM
KM12 colon
  TGI: 11.2 µM
UACC-62 melanoma
  TGI: 20.8 µM
OVCAR-4 ovarian
  TGI: 4.17 µM
SW-620 colon
  TGI: 3.76 µM
HCC-2998 colon
  TGI: 6.05 µM
SNB-75 CNS
  TGI: 11.4 µM
HOP-62 NSCLC
  TGI: 3.48 µM
OVCAR-5 ovarian
  TGI: 9.34 µM
COLO 205 colon
  TGI: 6.92 µM
LOX IMVI melanoma
  TGI: 4.76 µM
RXF 393 renal
  TGI: 4.3 µM
HT29 colon
  TGI: 4.24 µM
EKVX NSCLC
  TGI: 6.79 µM
CAKI-1 renal
  TGI: 7.42 µM
NCI-H522 lung
  TGI: 8.68 µM
IGROV1 ovarian
  TGI: 4.23 µM
MDA-N
  TGI: 6.8 µM
SNB-19 CNS
  TGI: 9.31 µM
MOLT-4 leukemia
  TGI: > 100 µM
HS 578T breast
  TGI: 6.35 µM
NCI-H226 lung
  TGI: 8.61 µM
SK-MEL-28 melanoma
  TGI: 18.3 µM
HCT-116 colon
  TGI: 11.6 µM
UACC-257 melanoma
  TGI: 14 µM
TK-10 renal
  TGI: 13.2 µM
786-0 renal
  TGI: 2.82 µM
SF-295 CNS
  TGI: 14.5 µM
UO-31 renal
  TGI: 12.8 µM
A498 renal
  TGI: 4.51 µM
MCF7 breast
  TGI: 13.1 µM

## CC1CC(=O)Nc2ccc(N=NN(C)C)cc2N1C=O (configuration not stated)
SK-MEL-2 melanoma
  TGI: > 100 µM
ACHN renal
  TGI: > 100 µM
NCI/ADR-RES ovarian
  TGI: > 100 µM
SK-OV-3 ovarian
  TGI: > 100 µM
SK-MEL-5 melanoma
  TGI: > 100 µM
OVCAR-8 ovarian
  TGI: > 100 µM
NCI-H23 lung
  TGI: > 100 µM
A549 NSCLC
  TGI: > 100 µM
BT-549 breast
  TGI: > 100 µM
HCT-15 colon
  TGI: > 100 µM
MDA-MB-435
  TGI: > 100 µM
PC-3 prostate
  TGI: > 100 µM
SF-268 CNS
  TGI: > 100 µM
MALME-3M melanoma
  TGI: > 100 µM
SN12C renal
  TGI: > 100 µM
CCRF-CEM leukemia
  TGI: > 100 µM
M14 melanoma
  TGI: > 100 µM
OVCAR-3 ovarian
  TGI: > 100 µM
DU-145 prostate
  TGI: > 100 µM
T-47D breast
  TGI: > 100 µM
NCI-H460 lung
  TGI: > 100 µM
MDA-MB-231 breast
  TGI: > 100 µM
K-562 leukemia
  TGI: > 100 µM
U251 CNS
  TGI: > 100 µM
KM12 colon
  TGI: > 100 µM
UACC-62 melanoma
  TGI: > 100 µM
OVCAR-4 ovarian
  TGI: > 100 µM
SW-620 colon
  TGI: > 100 µM
HCC-2998 colon
  TGI: > 100 µM
SNB-75 CNS
  TGI: > 100 µM
HOP-62 NSCLC
  TGI: > 100 µM
OVCAR-5 ovarian
  TGI: > 100 µM
COLO 205 colon
  TGI: > 100 µM
RXF 393 renal
  TGI: > 100 µM
HT29 colon
  TGI: > 100 µM
EKVX NSCLC
  TGI: > 100 µM
CAKI-1 renal
  TGI: > 100 µM
NCI-H522 lung
  TGI: > 100 µM
IGROV1 ovarian
  TGI: > 100 µM
MDA-N
  TGI: > 100 µM
SNB-19 CNS
  TGI: > 100 µM
RPMI-8226 leukemia
  TGI: > 100 µM
MOLT-4 leukemia
  TGI: > 100 µM
HS 578T breast
  TGI: > 100 µM
NCI-H226 lung
  TGI: > 100 µM
SK-MEL-28 melanoma
  TGI: > 100 µM
HCT-116 colon
  TGI: > 100 µM
UACC-257 melanoma
  TGI: > 100 µM
TK-10 renal
  TGI: > 100 µM
786-0 renal
  TGI: > 100 µM
SF-295 CNS
  TGI: > 100 µM
UO-31 renal
  TGI: > 100 µM
MCF7 breast
  TGI: > 100 µM

## COc1ccc(N=N/C(=N/NC(=O)c2cc(Cl)ccc2C(=O)c2ccccc2)c2ccc(N(CCC#N)CCC#N)cc2C)cc1
SK-MEL-2 melanoma
  TGI: 50 µM
ACHN renal
  TGI: 88.7 µM
NCI/ADR-RES ovarian
  TGI: 59.1 µM
SK-OV-3 ovarian
  TGI: > 100 µM
SK-MEL-5 melanoma
  TGI: 31.6 µM
OVCAR-8 ovarian
  TGI: 46.1 µM
NCI-H23 lung
  TGI: 61.9 µM
A549 NSCLC
  TGI: > 100 µM
BT-549 breast
  TGI: > 100 µM
HCT-15 colon
  TGI: 65.7 µM
MDA-MB-435
  TGI: > 100 µM
PC-3 prostate
  TGI: 41.4 µM
SF-268 CNS
  TGI: > 100 µM
MALME-3M melanoma
  TGI: 94.7 µM
SN12C renal
  TGI: 47.1 µM
CCRF-CEM leukemia
  TGI: 19.8 µM
M14 melanoma
  TGI: 92 µM
OVCAR-3 ovarian
  TGI: 27.9 µM
DU-145 prostate
  TGI: > 100 µM
T-47D breast
  TGI: 47.4 µM
NCI-H460 lung
  TGI: 45.3 µM
MDA-MB-231 breast
  TGI: 58.1 µM
K-562 leukemia
  TGI: > 100 µM
U251 CNS
  TGI: > 100 µM
KM12 colon
  TGI: > 100 µM
UACC-62 melanoma
  TGI: 51.8 µM
OVCAR-4 ovarian
  TGI: > 100 µM
SW-620 colon
  TGI: > 100 µM
HCC-2998 colon
  TGI: 70.8 µM
SNB-75 CNS
  TGI: > 100 µM
HOP-62 NSCLC
  TGI: 81.2 µM
OVCAR-5 ovarian
  TGI: 70 µM
COLO 205 colon
  TGI: 42.9 µM
RXF 393 renal
  TGI: 30.4 µM
HT29 colon
  TGI: 60.8 µM
EKVX NSCLC
  TGI: 61.1 µM
CAKI-1 renal
  TGI: 46 µM
IGROV1 ovarian
  TGI: 27.7 µM
MDA-N
  TGI: > 100 µM
SNB-19 CNS
  TGI: > 100 µM
RPMI-8226 leukemia
  TGI: 44.4 µM
MOLT-4 leukemia
  TGI: 33.8 µM
HS 578T breast
  TGI: > 100 µM
NCI-H226 lung
  TGI: 66.3 µM
SK-MEL-28 melanoma
  TGI: > 100 µM
HCT-116 colon
  TGI: 33.5 µM
UACC-257 melanoma
  TGI: 81 µM
TK-10 renal
  TGI: 75.1 µM
786-0 renal
  TGI: 86.7 µM
SF-295 CNS
  TGI: > 100 µM
UO-31 renal
  TGI: 79.3 µM
MCF7 breast
  TGI: > 100 µM
